A short description of data set [1]: Dissociation constant, pKa of the compound. It is filed as physicochemical.
Data set [2] addresses T1, Histamine H3 receptor (Homo sapiens, UniProt Q9Y5N1). The data set is described as follows: Inhibition of human histamine H3 expressed in CHO cells by saturation binding experiment. It counts as cell-based.
The nature of data set [3]: Metabolic stability in rat liver microsomes assessed as clearance per mg of protein. It is filed as ADME, Microsome.
For a further data set, the target named is Cytochrome P450 3A4 (Homo sapiens, UniProt P08684). Briefly: Inhibition of CYP3A4. It is filed as ADME.
For another data set, the target named is T2, Cytochrome P450 1A2 (Homo sapiens, UniProt P05177).
T2 sequence (P05177 whole entry): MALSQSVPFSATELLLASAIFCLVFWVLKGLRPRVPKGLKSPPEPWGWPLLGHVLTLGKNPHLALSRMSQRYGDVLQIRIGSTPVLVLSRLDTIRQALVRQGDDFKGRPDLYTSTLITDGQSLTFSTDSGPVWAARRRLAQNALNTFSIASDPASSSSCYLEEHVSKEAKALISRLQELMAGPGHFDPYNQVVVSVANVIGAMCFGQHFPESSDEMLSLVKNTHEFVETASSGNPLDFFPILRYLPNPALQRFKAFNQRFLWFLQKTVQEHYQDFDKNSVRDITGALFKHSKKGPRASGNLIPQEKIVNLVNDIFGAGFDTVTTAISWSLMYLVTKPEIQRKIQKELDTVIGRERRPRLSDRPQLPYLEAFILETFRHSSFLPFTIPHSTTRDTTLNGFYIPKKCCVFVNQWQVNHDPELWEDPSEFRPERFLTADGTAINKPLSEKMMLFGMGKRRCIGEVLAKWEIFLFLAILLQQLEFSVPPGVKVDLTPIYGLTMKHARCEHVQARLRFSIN
The data set is described as follows: Inhibition of CYP1A2. It counts as ADME.

The target in the next data set is Cytochrome P450 2D6 (Homo sapiens, UniProt P10635). The data set is described as follows: Inhibition of CYP2D6. It is filed as ADME.
Data set [4] is described as follows: Solubility in 10 mM DMSO by lyophilizated solubility assay. It is filed as physicochemical.
The nature of data set [5]: Lipophilicity, log D at pH 7.4. It counts as physicochemical. The conditions noted are these: buffer.
The nature of data set [6]: Membrane permeability by PAMPA. It counts as ADME. The settings on record: read-out: permeability.
Data set [7] is described as follows: Metabolic stability in human liver microsomes assessed as clearance per mg of protein. It is filed as ADME, Microsome. (Liver microsomes are vesicles of endoplasmic reticulum, rich in cytochrome P450 enzymes.)
For another data set, the target named is Cytochrome P450 2C9 (Homo sapiens, UniProt P11712). Briefly: Inhibition of CYP2C9. It is filed as ADME.
For data set [8], the target named is Histamine H2 receptor (Homo sapiens) (UniProt P25021). The data set is described as follows: Inhibition of human histamine H2 receptor at 3 uM.
A short description of data set [9]: Genotoxicity in mammalian cells assessed as increase in number of micronucleated cells by micronucleus test. It counts as cell-based.
Data set [10] has as its target Histamine H4 receptor (Homo sapiens) (UniProt Q9H3N8). Briefly: Inhibition of human histamine H4 receptor at 3 uM.
Data set [11] has as its system Salmonella enterica subsp. enterica. The data set is described as follows: Toxicity in Salmonella Typhimurium assessed as increase in number of revertant colonies by AMES microsuspension assay. It is filed as organism-based. The settings on record: salmonella enterica subsp. enterica serovar typhimurium.
Another data set has as its target Cytochrome P450 2C19 (Homo sapiens, UniProt P33261). The data set is described as follows: Inhibition of CYP2C19. It counts as ADME.
The target of data set [12] is T1, Histamine H3 receptor. Briefly: Inverse agonist activity at human histamine H3 receptor expressed in CHO cells by [35S]GTPgammaS binding assay. It counts as functional, cell-based. In general terms: GTPγS is a poorly hydrolysed GTP analogue; its binding reports G protein activation.
Data set [13] concerns the target Histamine H1 receptor (Homo sapiens) (UniProt P35367). Briefly: Inhibition of human histamine H1 receptor at 3 uM.
Another data set concerns Phospholipidosis. Briefly: In vitro phospholipidosis in fibroblasts. It is filed as ADME, cell-based. The conditions noted are these: fibroblast.

Each structure is given as a SMILES string.

T1 sequence (Q9Y5N1 whole entry): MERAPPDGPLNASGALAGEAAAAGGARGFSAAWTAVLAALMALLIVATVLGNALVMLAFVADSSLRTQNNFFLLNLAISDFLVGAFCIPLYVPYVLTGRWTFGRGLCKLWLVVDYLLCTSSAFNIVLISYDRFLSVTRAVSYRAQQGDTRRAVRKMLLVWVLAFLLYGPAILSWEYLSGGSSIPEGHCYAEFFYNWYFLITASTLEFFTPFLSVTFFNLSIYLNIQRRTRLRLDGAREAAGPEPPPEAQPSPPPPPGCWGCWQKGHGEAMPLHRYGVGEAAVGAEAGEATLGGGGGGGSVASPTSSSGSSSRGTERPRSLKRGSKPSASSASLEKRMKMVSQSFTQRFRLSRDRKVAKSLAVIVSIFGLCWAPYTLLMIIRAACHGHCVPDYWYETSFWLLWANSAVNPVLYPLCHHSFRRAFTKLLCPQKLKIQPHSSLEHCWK
Histamine H2 receptor (Homo sapiens), sequence (P25021 whole entry): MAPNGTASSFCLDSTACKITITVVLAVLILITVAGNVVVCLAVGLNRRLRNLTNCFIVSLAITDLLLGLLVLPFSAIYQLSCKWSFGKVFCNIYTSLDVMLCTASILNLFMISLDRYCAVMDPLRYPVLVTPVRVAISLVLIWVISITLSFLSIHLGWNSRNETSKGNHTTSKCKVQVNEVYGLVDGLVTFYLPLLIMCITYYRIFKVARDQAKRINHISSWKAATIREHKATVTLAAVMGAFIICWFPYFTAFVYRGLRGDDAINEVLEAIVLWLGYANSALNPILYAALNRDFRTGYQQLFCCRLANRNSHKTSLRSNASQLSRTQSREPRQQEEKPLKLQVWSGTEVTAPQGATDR
Histamine H1 receptor (Homo sapiens), sequence (P35367 whole entry): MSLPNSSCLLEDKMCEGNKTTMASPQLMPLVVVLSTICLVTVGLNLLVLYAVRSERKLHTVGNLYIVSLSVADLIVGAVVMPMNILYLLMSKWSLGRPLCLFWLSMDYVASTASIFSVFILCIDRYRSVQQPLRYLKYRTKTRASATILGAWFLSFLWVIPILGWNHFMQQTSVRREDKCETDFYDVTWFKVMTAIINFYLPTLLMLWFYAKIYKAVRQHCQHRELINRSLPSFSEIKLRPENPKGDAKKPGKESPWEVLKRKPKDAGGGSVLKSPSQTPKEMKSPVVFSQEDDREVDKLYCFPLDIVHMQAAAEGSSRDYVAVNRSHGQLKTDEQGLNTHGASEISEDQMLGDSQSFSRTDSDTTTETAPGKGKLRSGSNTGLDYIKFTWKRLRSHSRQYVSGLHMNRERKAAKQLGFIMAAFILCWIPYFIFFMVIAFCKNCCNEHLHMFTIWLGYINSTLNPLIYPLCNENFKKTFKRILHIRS
Histamine H4 receptor (Homo sapiens), sequence (Q9H3N8 whole entry): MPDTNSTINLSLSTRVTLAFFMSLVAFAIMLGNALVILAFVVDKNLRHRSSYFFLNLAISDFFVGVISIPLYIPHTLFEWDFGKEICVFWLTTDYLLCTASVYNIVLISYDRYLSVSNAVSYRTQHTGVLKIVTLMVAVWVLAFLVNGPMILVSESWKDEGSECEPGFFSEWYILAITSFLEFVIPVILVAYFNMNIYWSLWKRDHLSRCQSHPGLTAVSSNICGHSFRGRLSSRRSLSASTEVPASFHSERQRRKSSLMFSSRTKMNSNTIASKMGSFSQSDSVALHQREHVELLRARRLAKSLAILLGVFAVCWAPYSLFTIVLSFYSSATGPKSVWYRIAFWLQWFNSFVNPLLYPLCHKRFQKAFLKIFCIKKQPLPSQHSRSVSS
Cytochrome P450 2C9, sequence (P11712 whole entry): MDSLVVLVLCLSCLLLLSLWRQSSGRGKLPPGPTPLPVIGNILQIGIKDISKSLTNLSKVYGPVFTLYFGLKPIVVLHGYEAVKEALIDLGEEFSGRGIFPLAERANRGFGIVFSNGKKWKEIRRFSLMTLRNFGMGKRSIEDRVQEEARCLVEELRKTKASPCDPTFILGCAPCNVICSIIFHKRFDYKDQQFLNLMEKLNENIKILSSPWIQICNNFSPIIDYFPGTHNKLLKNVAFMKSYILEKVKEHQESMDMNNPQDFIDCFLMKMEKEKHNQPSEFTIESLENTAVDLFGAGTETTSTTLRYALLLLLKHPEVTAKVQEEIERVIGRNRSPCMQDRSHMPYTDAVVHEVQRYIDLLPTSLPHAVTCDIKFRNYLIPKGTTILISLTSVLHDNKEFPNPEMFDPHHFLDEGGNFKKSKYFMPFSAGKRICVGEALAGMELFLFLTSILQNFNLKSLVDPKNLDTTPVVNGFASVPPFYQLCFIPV
Cytochrome P450 3A4, sequence (P08684 whole entry): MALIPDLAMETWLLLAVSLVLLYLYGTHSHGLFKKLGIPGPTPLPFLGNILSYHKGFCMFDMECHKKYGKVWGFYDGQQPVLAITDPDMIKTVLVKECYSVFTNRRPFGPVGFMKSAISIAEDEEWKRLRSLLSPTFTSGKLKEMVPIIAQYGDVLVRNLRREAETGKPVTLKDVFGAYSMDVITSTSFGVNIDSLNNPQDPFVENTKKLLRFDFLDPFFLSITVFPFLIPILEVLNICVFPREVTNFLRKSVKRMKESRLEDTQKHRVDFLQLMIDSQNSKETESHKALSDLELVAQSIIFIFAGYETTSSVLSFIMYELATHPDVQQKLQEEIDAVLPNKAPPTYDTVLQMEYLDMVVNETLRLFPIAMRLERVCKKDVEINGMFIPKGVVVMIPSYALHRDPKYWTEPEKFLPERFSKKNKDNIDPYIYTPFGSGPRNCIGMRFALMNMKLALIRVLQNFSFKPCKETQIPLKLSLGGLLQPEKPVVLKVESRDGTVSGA
Cytochrome P450 2C19, sequence (P33261 whole entry): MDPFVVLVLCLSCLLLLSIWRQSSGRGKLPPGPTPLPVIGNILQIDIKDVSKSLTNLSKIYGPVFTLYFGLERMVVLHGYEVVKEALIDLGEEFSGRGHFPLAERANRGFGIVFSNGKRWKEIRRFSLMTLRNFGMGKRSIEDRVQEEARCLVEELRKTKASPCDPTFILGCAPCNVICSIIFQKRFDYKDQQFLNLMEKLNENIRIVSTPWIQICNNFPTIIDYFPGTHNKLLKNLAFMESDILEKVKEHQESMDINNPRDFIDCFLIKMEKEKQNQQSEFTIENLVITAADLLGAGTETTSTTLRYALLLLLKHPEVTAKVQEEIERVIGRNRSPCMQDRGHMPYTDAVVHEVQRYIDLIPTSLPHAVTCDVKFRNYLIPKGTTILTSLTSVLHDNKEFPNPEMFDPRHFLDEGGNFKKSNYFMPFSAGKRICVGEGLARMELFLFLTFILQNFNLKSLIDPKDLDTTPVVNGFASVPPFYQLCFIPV
Cytochrome P450 2D6, sequence (P10635 whole entry): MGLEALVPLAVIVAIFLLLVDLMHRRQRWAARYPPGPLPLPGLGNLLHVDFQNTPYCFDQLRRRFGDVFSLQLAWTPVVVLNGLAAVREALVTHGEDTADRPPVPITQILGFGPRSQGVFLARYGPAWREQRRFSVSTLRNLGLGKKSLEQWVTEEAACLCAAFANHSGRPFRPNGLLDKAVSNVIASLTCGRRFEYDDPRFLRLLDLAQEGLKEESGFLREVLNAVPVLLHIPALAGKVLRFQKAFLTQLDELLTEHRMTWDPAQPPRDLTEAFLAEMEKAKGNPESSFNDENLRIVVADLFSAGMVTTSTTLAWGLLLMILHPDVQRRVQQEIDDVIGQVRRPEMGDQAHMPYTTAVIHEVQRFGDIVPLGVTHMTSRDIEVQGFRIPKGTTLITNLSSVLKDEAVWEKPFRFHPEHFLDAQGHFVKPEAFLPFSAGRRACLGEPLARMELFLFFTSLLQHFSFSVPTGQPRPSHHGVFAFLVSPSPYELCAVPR

`COC1CCN(C(=O)c2ccc3cc(OC4CCN(C(C)C)CC4)ccc3n2)CC1`: the pKa (usually the negative logarithm of the acid dissociation constant) in [1] came to 9.5. Moreover, affinity at Histamine H3 receptor [2] was put at a Ki of 125 nM.
In the case of `CC1CCN(C(=O)c2ccc3cc(OCCC4CCCN4C)ccc3c2)CC1` (stereo not given), the pKa in [1] worked out at 9.9.
The compound `CC(C)N1CCC(Oc2ccc3nc(C(=O)N4CCOCC4)ccc3c2)CC1` had a pKa in [1] of 9.5. In addition, the Ki (as a rule, the dissociation constant of the complex between target and ligand, obtained from inhibition or displacement) on Histamine H3 receptor [2] stood at 238 nM.
In the case of `CC(C)N1CCC(Oc2ccc3nc(C(=O)N4CCC4)ccc3c2)CC1`, the pKa in [1] is 9.5. On Histamine H3 receptor [2], this compound gave a Ki of 62 nM.
The corresponding values for `CC(C)N1CCC(Oc2ccc3nc(C(=O)N4CCC[C@H]4C#N)ccc3c2)CC1` are 9.5 and 87 nM.
For the compound `CC(C)N1CCC(Oc2ccc3cc(C(=O)N4CCC(CO)CC4)ccc3c2)CC1`, the pKa in [1] came out at 9.6. At Histamine H3 receptor [2], this compound registered a Ki of 154 nM.
Compound `CC(C)N1CCC(Oc2ccc3cc(C(=O)N4CCCC4C)ccc3c2)CC1` (stereo not given) showed a pKa in data set [1] of 9.71. The compound also showed an inhibitory constant (Ki) on Histamine H3 receptor [2] of 15 nM.
On to `CC1CCN(C(=O)c2ccc3cc(OCCCN4CCCCC4)ccc3c2)CC1`, for which the intrinsic clearance (microsomal CLint) (usually a measure of how fast metabolising enzymes remove a compound, apart from limits set by blood flow) in [3] was 32 µL/min/mg; in data set [7], 33 µL/min/mg. Further, the IC50 on Cytochrome P450 3A4, against Cytochrome P450 1A2, at Cytochrome P450 2D6, on Cytochrome P450 2C9 and against Cytochrome P450 2C19 was above 12000 nM throughout. In addition, the solubility – broadly, how much of the substance goes into solution per volume – in [4] was above 543 µg/mL. Also, the logD (commonly lipophilicity at a set pH, counting ionised and neutral species) in data set [5] was determined as 2.47. Further, the Papp in data set [6] is 2.6 ×10⁻⁶ cm/s. The compound further yielded a pKa in data set [1] of 9.86. Also, the inhibition (as a rule, the drop in the measured response relative to a control, in per cent) in [8] was -0.3%; in data set [10], 0%. Besides, the Activity entry in data set [9] and in data set [11] was “Non-toxic” in each case. The same compound came in with a Ki on Histamine H3 receptor [2] of 7 nM. Besides, the half-maximal effective concentration (EC50) – broadly, the concentration at which the effect is half-maximal – at Histamine H3 receptor [12] was 200 nM.
For `CC(C)N1[C@@H]2CC(Oc3ccc4nc(C(=O)N5CCOCC5)ccc4c3)CC[C@H]1C2` (stereo not given in full), the pKa in data set [1] is 8.97. The compound also displayed a Ki on Histamine H3 receptor [2] of 30 nM.
Compound `CC1CCN(C(=O)c2ccc3cc(OC4CCN(C(C)C)CC4)ccc3c2)CC1` gave a pKa in data set [1] of 9.6. The inhibition in data set [8] was -8%; in data set [10], 0%; in [13] it was 0.9%. The compound also came in with an inhibition constant (Ki) at Histamine H3 receptor [2] of 34 nM.
For the compound `CC(C)CN1CCC(Oc2ccc3cc(C(=O)N4CCC(C)CC4)ccc3c2)CC1`, the pKa in data set [1] stood at 9.8. The inhibition in [8] was 4.1%; in data set [10], 0%; in data set [13] it was -4.5%. In addition, the affinity at Histamine H3 receptor [2], expressed as Ki, was 36 nM.
With `CC1CCN(C(=O)c2ccc3cc(OC4CCN(C(C)C)C4)ccc3c2)CC1` (stereo not given), in data set [1], the pKa was determined as 9.4. The same compound showed a Ki at Histamine H3 receptor [2] of 234 nM.
Compound `O=C(c1ccc2cc(OCCCN3CCCCC3)ccc2n1)N1CCC1` came in with a pKa in data set [1] of 9.4. The same compound showed a Ki at Histamine H3 receptor [2] of 119 nM.
The compound `CC1CCN(C(=O)c2ccc3cc(OCCCN4CCOCC4)ccc3c2)CC1` displayed a pKa in [1] of 7.8. Also, the inhibition constant (Ki) at Histamine H3 receptor [2] was 2000 nM.
In turn, `O=C(c1ccc2cc(OCCCN3CCCCC3)ccc2c1)N1CCC(CO)CC1` returned a pKa in data set [1] of 9.6. This compound yielded a Ki at Histamine H3 receptor [2] of 103 nM.
For the compound `CC1CCN(C(=O)c2ccc3cc(OCCCN4CCCCC4)ccc3n2)CC1`, the pKa in data set [1] worked out at 9.7. This compound returned an inhibition constant Ki on Histamine H3 receptor [2] of 300 nM.
The corresponding values for `COC1CCN(C(=O)c2ccc3cc(OCCCN4CCCCC4)ccc3c2)CC1` are 9.57 and 30 nM.
`COC1CCN(C(=O)c2ccc3cc(OC4CCN(C(C)C)CC4)ccc3c2)CC1` displayed a pKa in data set [1] of 9.4. For the same compound, at Histamine H3 receptor [2], the inhibition constant Ki is 62 nM.
Turning to `CC(C)N1CCC(Oc2ccc3cc(C(=O)N4CCOCC4)ccc3c2)CC1`, the microsomal CLint is 3 µL/min/mg in data set [3] and 23 µL/min/mg in [7]. Further, the IC50 on Cytochrome P450 3A4, against Cytochrome P450 1A2, against Cytochrome P450 2D6, on Cytochrome P450 2C9 and on Cytochrome P450 2C19 was above 41000 nM in each case. The solubility in data set [4] is above 558 µg/mL. Also, the logD in [5] turned out to be 0.6. The Papp in data set [6] came to 2.5 ×10⁻⁶ cm/s. Also, the pKa in data set [1] was determined as 9.3. Besides, the inhibition was -9.9% in data set [8], 0% in data set [10] and 1.6% in data set [13]. In addition, the Phospholipidosis result with Phospholipidosis is “Not Active”. The Activity entry in data set [9] and in [11] was “Non-toxic” each time. The inhibitory constant (Ki) at Histamine H3 receptor [2] amounted to 40 nM. On Histamine H3 receptor [12], this compound came in with a 50% effective concentration (EC50) of 17 nM.

Source of the values: ChEMBL document CHEMBL1153640, “Selective naphthalene H(3) receptor inverse agonists with reduced potential to induce phospholipidosis and their quinoline analogs” (Bioorg Med Chem Lett, 2009).
